Measurements published in patent US11414424B2, “Cardiac sarcomere inhibitors” (Cytokinetics, Inc., priority 2018, dated 2022).

Tested on: bovine cardiac myofibrils
Test: Myofibril assay: PK/LDH-coupled steady-state ATPase activity of skinned bovine cardiac myofibrils
Type: biochemical
Conditions: Ca2+ activating to 75% of maximal rate
In short: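 Steady-state ATPase of detergent-skinned bovine left-ventricular myofibrils (1 mg/mL), PK/LDH-coupled NADH read at 340 nm, in PIPES/MgCl2 buffer pH 6.8 with 50 μM ATP, 0.6 mM EGTA and CaCl2 set for 50% or 75% activation. Inhibition of activity measured.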

Going from `COC(=O)N1CCC2(C1)C(=O)N(C(C)C)CC(=O)N2Cc1ccc(C(F)(F)F)cc1` (stereo not shown) [Compound 110, methyl 9-isopropyl-7,10-dioxo-6-(4-(trifluoro-methyl)benzyl)-2,6,9-triazaspiro[4.5]decane-2-carboxylate] to `CCNC(=O)N1CCC2(C1)C(=O)N(C(C)C)CC(=O)N2Cc1ccc(C(F)(F)F)cc1` (stereo not shown) [Compound 116, N-ethyl-9-isopropyl-7,10-dioxo-6-(4-(trifluoromethyl)benzyl)-2,6,9-triazaspiro[4.5] decane-2-carboxamide], the “CDMF75 IC15” value falls from 34.4 µM to 7.2 µM (4.8-fold).

`CC(C)N1CC(=O)N(Cc2ccc(C(F)(F)F)cc2)C2(CCN(C(=O)Nc3ccncc3)C2)C1=O` (stereo not shown) [Compound 111, 9-isopropyl-7,10-dioxo-N-(pyridin-4-yl)-6-(4-(trifluoromethyl)benzyl)-2,6,9-triazaspiro[4.5]-decane-2-carboxamide] and `CC(C)N1CC(=O)N(Cc2ccc(C(F)(F)F)cc2)C2(CCN(C(=O)Nc3cccnc3)C2)C1=O` (stereo not shown) [Compound 113, 9-isopropyl-7,10-dioxo-N-(pyridin-3-yl)-6-(4-(trifluoromethyl)benzyl)-2,6,9-triazaspiro[4.5]-decane-2-carboxamide] are within 1.5-fold of each other in “CDMF75 IC15” value: 19.8 µM for the first, 18.5 µM for the second.

First: CC(C)N1CC(=O)N(Cc2ccc(C(F)(F)F)cc2)C2(CCN(C(=O)NC(C)(C)C)C2)C1=O (stereo not shown) [Compound 112, N-(tert-butyl)-9-isopropyl-7,10-dioxo-6-(4-(trifluoromethyl)benzyl)-2,6,9-triazaspiro[4.5]-decane-2-carboxamide]
Second: CC(C)NC(=O)N1CCC2(C1)C(=O)N(C(C)C)CC(=O)N2Cc1ccc(C(F)(F)F)cc1 (stereo not shown) [Compound 117, N,9-diisopropyl-7,10-dioxo-6-(4-(trifluoromethyl)benzyl)-2,6,9-triazaspiro[4.5]decane-2-carboxamide]
The “CDMF75 IC15” value of the first is 2-fold higher: 33.0 µM for the first, 16.6 µM for the second.

`CC(C)N1CC(=O)N(Cc2ccc(C(F)(F)F)cc2)C2(CCN(C(=O)Nc3cnn(C)c3)C2)C1=O` (stereo not shown) [Compound 114, 9-isopropyl-N-(1-methyl-1H-pyrazol-4-yl)-7,10-dioxo-6-(4-(trifluoromethyl)benzyl)-2,6,9-triazaspiro[4.5]decane-2-carboxamide] and `CC(C)N1CC(=O)N(Cc2ccc(C(F)(F)F)cc2)C2(CCN(C(=O)Nc3ccc(F)cc3)C2)C1=O` (stereo not shown) [Compound 115, N-(4-fluorophenyl)-9-isopropyl-7,10-dioxo-6-(4-(trifluoromethyl)benzyl)-2,6,9-triazaspiro[4.5]decane-2-carboxamide] are within 1.5-fold of each other in “CDMF75 IC15” value: 7.9 µM for the first, 10.2 µM for the second.

`CC(C)N1CC(=O)N(Cc2ccc(C(F)(F)F)cc2)C2(CCN(C(=O)NC3CC3)C2)C1=O` (stereo not shown) [Compound 118, N-cyclopropyl-9-isopropyl-7,10-dioxo-6-(4-(trifluoromethyl)benzyl)-2,6,9-triazaspiro[4.5]decane-2-carboxamide] and `CC(C)N1CC(=O)N(Cc2ccc(Cl)cc2)C2(CCN(C(=O)NC3CC3)C2)C1=O` (stereo not shown) [Compound 122, 6-(4-chlorobenzyl)-N-cyclopropyl-9-isopropyl-7,10-dioxo-2,6,9-triazaspiro[4.5]decane-2-carboxamide] are within 1.5-fold of each other in “CDMF75 IC15” value: 14.0 µM for the first, 20.5 µM for the second.

`CCNC(=O)N1CCC2(C1)C(=O)N(C(C)C)CC(=O)N2Cc1ccc(Cl)cc1` (stereo not shown) [Compound 119, 6-(4-chlorobenzyl)-N-ethyl-9-isopropyl-7,10-dioxo-2,6,9-triazaspiro[4.5]-decane-2-carboxamide] and `CNC(=O)N1CCC2(C1)C(=O)N(C(C)C)CC(=O)N2Cc1ccc(Cl)cc1` (stereo not shown) [Compound 121, 6-(4-chlorobenzyl)-9-isopropyl-N-methyl-7,10-dioxo-2,6,9-triazaspiro[4.5]-decane-2-carboxamide] are within 1.5-fold of each other in “CDMF75 IC15” value: 10.8 µM for the first, 9.9 µM for the second.

Compared with `CC(C)N1CC(=O)N(Cc2ccc(Cl)cc2)C2(CCN(C(N)=O)C2)C1=O` (stereo not shown) [Compound 120, 6-(4-chlorobenzyl)-9-isopropyl-7,10-dioxo-2,6,9-triazaspiro[4.5]decane-2-carboxamide], `CC(C)N1CC(=O)N(Cc2ccc(Cl)cc2)C2(CCN(C(=O)Nc3ccccc3)C2)C1=O` (stereo not shown) [Compound 123, 6-(4-chlorobenzyl)-9-isopropyl-7,10-dioxo-N-phenyl-2,6,9-triazaspiro-[4.5]decane-2-carboxamide] is 1.6-fold lower in “CDMF75 IC15” value: 18.3 µM for the first, 11.2 µM for the second.

`CC(C)N1CC(=O)N(Cc2ccc(Cl)cc2)C2(CCN(c3ccccc3)C2)C1=O` (stereo not shown) [Compound 127, 6-(4-chlorobenzyl)-9-isopropyl-2-phenyl-2,6,9-triazaspiro[4.5]decane-7,10-dione] and `CC(C)N1CC(=O)N(Cc2ccc(Cl)cc2)C2(CCN(c3ccccn3)C2)C1=O` (stereo not shown) [Compound 128, 6-(4-chlorobenzyl)-9-isopropyl-2-(pyridin-2-yl)-2,6,9-triazaspiro[4.5]decane-7,10-dione] are the same in “CDMF75 IC15” value: 0.8 µM for the first, 0.8 µM for the second.

First: Cc1cc(N2CCC3(C2)C(=O)N(C(C)C)CC(=O)N3Cc2ccc(Cl)cc2)ccn1 (stereo not shown) [Compound 129, 6-(4-chlorobenzyl)-9-isopropyl-2-(2-methyl-pyridin-4-yl)-2,6,9-triazaspiro-[4.5]decane-7,10-dione]
Second: CC(C)N1CC(=O)N(C(C)c2ccc(C(F)(F)F)cc2)C2(CN(c3ccccn3)C2)C1=O (stereo not shown) [Compound 138, 8-isopropyl-2-(pyridin-2-yl)-5-(1-(4-(trifluoromethyl)-phenyl)ethyl)-2,5,8-triazaspiro[3.5]nonane-6,9-dione]
The “CDMF75 IC15” value of the first is 1.5-fold lower: 4.6 µM for the first, 7.0 µM for the second.

Compared with `CNC(=O)N1CC2(C1)C(=O)N(C(C)C)CC(=O)N2C(C)c1ccc(C(F)(F)F)cc1` (stereo not shown) [Compound 139, 8-isopropyl-N-methyl-6,9-dioxo-5-(1-(4-(trifluoromethyl)phenyl)-ethyl)-2,5,8-triazaspiro-[3.5]nonane-2-carboxamide], `CC(C)N1CC(=O)N(C(C)c2ccc(C(F)(F)F)cc2)C2(CN(c3ccccc3)C2)C1=O` (stereo not shown) [Compound 140, 8-isopropyl-2-phenyl-5-(1-(4-(trifluoromethyl)phenyl)-ethyl)-2,5,8-triazaspiro-[3.5]nonane-6,9-dione] is 3.4-fold lower in “CDMF75 IC15” value: 14.8 µM for the first, 4.4 µM for the second.

Compared with `CC(C)N1CC(=O)N([C@H](C)c2ccc(C(F)(F)F)cc2)C2(CN(c3ccccc3)C2)C1=O` [Compound 141, (R)-8-isopropyl-2-phenyl-5-(1-(4-(trifluoromethyl)-phenyl)ethyl)-2,5,8-triazaspiro[3.5]nonane-6,9-dione], `CC(C)N1CC(=O)N([C@@H](C)c2ccc(C(F)(F)F)cc2)C2(CN(c3ccccc3)C2)C1=O` [Compound 142, (S)-8-isopropyl-2-phenyl-5-(1-(4-(trifluoromethyl)phenyl)ethyl)-2,5,8-triazaspiro[3.5]nonane-6,9-dione] is 13-fold lower in “CDMF75 IC15” value: 10.7 µM for the first, 0.8 µM for the second.

First: CNC(=O)N1CC2(C1)C(=O)N(c1ccc(OC)cc1)CC(=O)N2Cc1ccc(C(F)(F)F)cc1 [Compound 145, 8-(4-methoxyphenyl)-N-methyl-6,9-dioxo-5-(4-(trifluoromethyl)benzyl)-2,5,8-triazaspiro[3.5]-nonane-2-carboxamide]
Second: CNC(=O)N1CC2(C1)C(=O)N(c1ccc(C)cc1)CC(=O)N2Cc1ccc(C(F)(F)F)cc1 [Compound 153, N-methyl-6,9-dioxo-8-(p-tolyl)-5-(4-(trifluoromethyl)benzyl)-2,5,8-triazaspiro[3.5]-nonane-2-carboxamide]
The “CDMF75 IC15” value of the first is 1.7-fold lower: 3.8 µM for the first, 6.4 µM for the second.

Going from `CNC(=O)N1CC2(C1)C(=O)N(c1ccc(C#N)cc1)CC(=O)N2Cc1ccc(C(F)(F)F)cc1` [Compound 146, 8-(4-cyanophenyl)-N-methyl-6,9-dioxo-5-(4-(trifluoromethyl)benzyl)-2,5,8-triazaspiro[3.5]-nonane-2-carboxamide] to `CNC(=O)N1CC2(C1)C(=O)N(c1ccc(F)cc1)CC(=O)N2Cc1ccc(C(F)(F)F)cc1` [Compound 149, 8-(4-fluorophenyl)-N-methyl-6,9-dioxo-5-(4-(trifluoromethyl)benzyl)-2,5,8-triazaspiro[3.5]-nonane-2-carboxamide], the “CDMF75 IC15” value rises from 1.2 µM to 8.9 µM (7.4-fold).

First: CNC(=O)N1CC2(C1)C(=O)N(c1ccc(C#N)nc1)CC(=O)N2Cc1ccc(C(F)(F)F)cc1 [Compound 147, 8-(6-cyanopyridin-3-yl)-N-methyl-6,9-dioxo-5-(4-(trifluoromethyl)benzyl)-2,5,8-triazaspiro[3.5]-nonane-2-carboxamide]
Second: CNC(=O)N1CC2(C1)C(=O)N(c1ccc(OC)nc1)CC(=O)N2Cc1ccc(C(F)(F)F)cc1 [Compound 154, 8-(6-methoxypyridin-3-yl)-N-methyl-6,9-dioxo-5-(4-(trifluoromethyl)benzyl)-2,5,8-triazaspiro[3.5]-nonane-2-carboxamide]
The “CDMF75 IC15” value of the first is 2.4-fold lower: 8.1 µM for the first, 19.8 µM for the second.

Going from `CNC(=O)N1CC2(C1)C(=O)N(c1ccc(C(=O)OC)cc1)CC(=O)N2Cc1ccc(C(F)(F)F)cc1` [Compound 148, methyl 4-(2-(methylcarbamoyl)-6,9-dioxo-5-(4-(trifluoro-methyl)benzyl)-2,5,8-triazaspiro[3.5]nonan-8-yl)benzoate] to `CNC(=O)N1CC2(C1)C(=O)N(c1ccc(C(F)(F)F)cc1)CC(=O)N2Cc1ccc(C(F)(F)F)cc1` [Compound 151, N-methyl-6,9-dioxo-5-(4-(trifluoromethyl)benzyl)-8-(4-(trifluoromethyl)phenyl)-2,5,8-triazaspiro[3.5]nonane-2-carboxamide], the “CDMF75 IC15” value rises from 2.3 µM to 12.2 µM (5.3-fold).

`CNC(=O)N1CC2(C1)C(=O)N(c1ccc(F)c(F)c1)CC(=O)N2Cc1ccc(C(F)(F)F)cc1` [Compound 152, 8-(3,4-difluorophenyl)-N-methyl-6,9-dioxo-5-(4-(trifluoromethyl)benzyl)-2,5,8-triazaspiro[3.5]nonane-2-carboxamide] was tested, and the “CDMF75 IC15” value was 2.8 µM.
